Data reported in ChEMBL document CHEMBL4665642, “Anticancer profile of newly synthesized BRAF inhibitors possess 5-(pyrimidin-4-yl)imidazo[2,1-b]thiazole scaffold” (Bioorg Med Chem, 2019).

Tests used:
Assay type in all cases: functional
Settings in all cases: read-out: Activity
PC-3 = assay: Cytotoxicity against human PC-3 cells assessed as cell viability at 10 uM incubated for 48 hrs by sulforhodamine B assay relative to control
SF-295 = assay: Cytotoxicity against human SF-295 cells assessed as cell viability at 10 uM incubated for 48 hrs by sulforhodamine B assay relative to control
NCI-H322M = assay: Cytotoxicity against human NCI-H322M cells assessed as cell viability at 10 uM incubated for 48 hrs by sulforhodamine B assay relative to control
MCF7 = assay: Cytotoxicity against human MCF7 cells assessed as cell viability at 10 uM incubated for 48 hrs by sulforhodamine B assay relative to control
SNB-75 = assay: Cytotoxicity against human SNB-75 cells assessed as cell viability at 10 uM incubated for 48 hrs by sulforhodamine B assay relative to control
NCI/ADR-RES = assay: Cytotoxicity against human NCI/ADR-RES cells assessed as cell viability at 10 uM incubated for 48 hrs by sulforhodamine B assay relative to control
NCI-H23 = assay: Cytotoxicity against human NCI-H23 cells assessed as cell viability at 10 uM incubated for 48 hrs by sulforhodamine B assay relative to control
HOP-92 = assay: Cytotoxicity against human HOP-92 cells assessed as cell viability at 10 uM incubated for 48 hrs by sulforhodamine B assay relative to control
UACC-257 = assay: Cytotoxicity against human UACC-257 cells assessed as cell viability at 10 uM incubated for 48 hrs by sulforhodamine B assay relative to control
NCI-H522 = assay: Cytotoxicity against human NCI-H522 cells assessed as cell viability at 10 uM incubated for 48 hrs by sulforhodamine B assay relative to control
Hs-578T = assay: Cytotoxicity against human HS-578T cells assessed as cell viability at 10 uM incubated for 48 hrs by sulforhodamine B assay relative to control
SF-539 = assay: Cytotoxicity against human SF-539 cells assessed as cell viability at 10 uM incubated for 48 hrs by sulforhodamine B assay relative to control
MDA-MB-435 = assay: Cytotoxicity against human MDA-MB-435 cells assessed as cell viability at 10 uM incubated for 48 hrs by sulforhodamine B assay relative to control
LOX IMVI = assay: Cytotoxicity against human LOX IMVI cells assessed as cell viability at 10 uM incubated for 48 hrs by sulforhodamine B assay relative to control
HOP-62 = assay: Cytotoxicity against human HOP-62 cells assessed as cell viability at 10 uM incubated for 48 hrs by sulforhodamine B assay relative to control
U-251 = assay: Cytotoxicity against human U-251 cells assessed as cell viability at 10 uM incubated for 48 hrs by sulforhodamine B assay relative to control
A549 = assay: Cytotoxicity against human A549 cells assessed as cell viability at 10 uM incubated for 48 hrs by sulforhodamine B assay relative to control
CAKI-1 = assay: Cytotoxicity against human CAKI-1 cells assessed as cell viability at 10 uM incubated for 48 hrs by sulforhodamine B assay relative to control
SK-MEL-5 = assay: Cytotoxicity against human SK-MEL-5 cells assessed as cell viability at 10 uM incubated for 48 hrs by sulforhodamine B assay relative to control
SF-268 = assay: Cytotoxicity against human SF-268 cells assessed as cell viability at 10 uM incubated for 48 hrs by sulforhodamine B assay relative to control
MDA-MB-231 = assay: Cytotoxicity against human MDA-MB-231 cells assessed as cell viability at 10 uM incubated for 48 hrs by sulforhodamine B assay relative to control
SR = assay: Cytotoxicity against human SR cells assessed as cell viability at 10 uM incubated for 48 hrs by sulforhodamine B assay relative to control
OVCAR-8 = assay: Cytotoxicity against human OVCAR-8 cells assessed as cell viability at 10 uM incubated for 48 hrs by sulforhodamine B assay relative to control
HCT-15 = assay: Cytotoxicity against human HCT-15 cells assessed as cell viability at 10 uM incubated for 48 hrs by sulforhodamine B assay relative to control
OVCAR-5 = assay: Cytotoxicity against human OVCAR-5 cells assessed as cell viability at 10 uM incubated for 48 hrs by sulforhodamine B assay relative to control
SK-MEL-2 = assay: Cytotoxicity against human SK-MEL-2 cells assessed as cell viability at 10 uM incubated for 48 hrs by sulforhodamine B assay relative to control
EKVX = assay: Cytotoxicity against human EKVX cells assessed as cell viability at 10 uM incubated for 48 hrs by sulforhodamine B assay relative to control
TK-10 = assay: Cytotoxicity against human TK-10 cells assessed as cell viability at 10 uM incubated for 48 hrs by sulforhodamine B assay relative to control
IGROV-1 = assay: Cytotoxicity against human IGROV-1 cells assessed as cell viability at 10 uM incubated for 48 hrs by sulforhodamine B assay relative to control
UO-31 = assay: Cytotoxicity against human UO-31 cells assessed as cell viability at 10 uM incubated for 48 hrs by sulforhodamine B assay relative to control
Malme-3M = assay: Cytotoxicity against human Malme-3M cells assessed as cell viability at 10 uM incubated for 48 hrs by sulforhodamine B assay relative to control
BT-549 = assay: Cytotoxicity against human BT-549 cells assessed as cell viability at 10 uM incubated for 48 hrs by sulforhodamine B assay relative to control
M14 = assay: Cytotoxicity against human M14 cells assessed as cell viability at 10 uM incubated for 48 hrs by sulforhodamine B assay relative to control
RXF 393 = assay: Cytotoxicity against human RXF 393 cells assessed as cell viability at 10 uM incubated for 48 hrs by sulforhodamine B assay relative to control
DU-145 = assay: Cytotoxicity against human DU-145 cells assessed as cell viability at 10 uM incubated for 48 hrs by sulforhodamine B assay relative to control
RPMI-8226 = assay: Cytotoxicity against human RPMI-8226 cells assessed as cell viability at 10 uM incubated for 48 hrs by sulforhodamine B assay relative to control
SW-620 = assay: Cytotoxicity against human SW-620 cells assessed as cell viability at 10 uM incubated for 48 hrs by sulforhodamine B assay relative to control
NCI-H226 = assay: Cytotoxicity against human NCI-H226 cells assessed as cell viability at 10 uM incubated for 48 hrs by sulforhodamine B assay relative to control
SNB-19 = assay: Cytotoxicity against human SNB-19 cells assessed as cell viability at 10 uM incubated for 48 hrs by sulforhodamine B assay relative to control
HCC 2998 = assay: Cytotoxicity against human HCC 2998 cells assessed as cell viability at 10 uM incubated for 48 hrs by sulforhodamine B assay relative to control
HCT-116 = assay: Cytotoxicity against human HCT-116 cells assessed as cell viability at 10 uM incubated for 48 hrs by sulforhodamine B assay relative to control

Compound: O=S(=O)(NCCCNc1nccc(-c2c(-c3cccc(F)c3)nc3sccn23)n1)c1cccc2ccccc12
- viability at 10 µM (PC-3): 41.2%
- viability at 10 µM (SF-295): 34.6%
- viability at 10 µM (NCI-H322M): 81.6%
- viability at 10 µM (MCF7): 37.4%
- viability at 10 µM (SNB-75): 86.5%
- viability at 10 µM (NCI/ADR-RES): 47.1%
- viability at 10 µM (NCI-H23): 66.2%
- viability at 10 µM (HOP-92): 94.6%
- viability at 10 µM (UACC-257): 72.8%
- viability at 10 µM (NCI-H522): 56.3%
- viability at 10 µM (Hs-578T): 55.9%
- viability at 10 µM (SF-539): 72.8%
- viability at 10 µM (MDA-MB-435): 22.6%
- viability at 10 µM (LOX IMVI): 20.9%
- viability at 10 µM (HOP-62): 80.7%
- viability at 10 µM (U-251): 59.1%
- viability at 10 µM (A549): 45.6%
- viability at 10 µM (CAKI-1): 29.1%
- viability at 10 µM (SK-MEL-5): 31.8%
- viability at 10 µM (SF-268): 44.5%
- viability at 10 µM (MDA-MB-231): 4.05%
- viability at 10 µM (SR): 62%
- viability at 10 µM (OVCAR-8): 38.5%
- viability at 10 µM (HCT-15): 18.1%
- viability at 10 µM (OVCAR-5): 80.9%
- viability at 10 µM (SK-MEL-2): 47.8%
- viability at 10 µM (EKVX): 56.1%
- viability at 10 µM (TK-10): 71.7%
- viability at 10 µM (IGROV-1): 22.3%
- viability at 10 µM (UO-31): 20%
- viability at 10 µM (Malme-3M): 78.7%
- viability at 10 µM (BT-549): 65%
- viability at 10 µM (M14): 42.7%
- viability at 10 µM (RXF 393): 62.9%
- viability at 10 µM (DU-145): 49.9%
- viability at 10 µM (RPMI-8226): 44.9%
- viability at 10 µM (SW-620): 42.1%
- viability at 10 µM (NCI-H226): 36.8%
- viability at 10 µM (SNB-19): 69%
- viability at 10 µM (HCC 2998): 16.3%
- viability at 10 µM (HCT-116): 32.4%

Compound: O=S(=O)(NCCNc1nccc(-c2c(-c3cccc(F)c3)nc3sccn23)n1)c1ccc(F)cc1
- viability at 10 µM (PC-3): 51.4%
- viability at 10 µM (SF-295): 67.5%
- viability at 10 µM (NCI-H322M): 64%
- viability at 10 µM (MCF7): 22%
- viability at 10 µM (SNB-75): 67.7%
- viability at 10 µM (NCI/ADR-RES): 66.7%
- viability at 10 µM (NCI-H23): 79.3%
- viability at 10 µM (HOP-92): 84.8%
- viability at 10 µM (UACC-257): 79.1%
- viability at 10 µM (NCI-H522): 67%
- viability at 10 µM (Hs-578T): 68%
- viability at 10 µM (SF-539): 83.2%
- viability at 10 µM (MDA-MB-435): 31.5%
- viability at 10 µM (LOX IMVI): 42.8%
- viability at 10 µM (HOP-62): 80.1%
- viability at 10 µM (U-251): 58.4%
- viability at 10 µM (A549): 32.1%
- viability at 10 µM (CAKI-1): 41.3%
- viability at 10 µM (SK-MEL-5): 35.4%
- viability at 10 µM (SF-268): 53.8%
- viability at 10 µM (MDA-MB-231): 76.6%
- viability at 10 µM (SR): 38%
- viability at 10 µM (OVCAR-8): 47.3%
- viability at 10 µM (HCT-15): 32.2%
- viability at 10 µM (OVCAR-5): 92.5%
- viability at 10 µM (SK-MEL-2): 67.2%
- viability at 10 µM (EKVX): 62.7%
- viability at 10 µM (TK-10): 80.4%
- viability at 10 µM (IGROV-1): 11.3%
- viability at 10 µM (UO-31): 23.2%
- viability at 10 µM (Malme-3M): 81.1%
- viability at 10 µM (BT-549): 78.6%
- viability at 10 µM (M14): 67.8%
- viability at 10 µM (RXF 393): 68.9%
- viability at 10 µM (DU-145): 52.4%
- viability at 10 µM (RPMI-8226): 63.4%
- viability at 10 µM (SW-620): 63%
- viability at 10 µM (NCI-H226): 45.6%
- viability at 10 µM (SNB-19): 67.4%
- viability at 10 µM (HCC 2998): 80.8%
- viability at 10 µM (HCT-116): 40%

Compound: O=S(=O)(NCCCNc1nccc(-c2c(-c3cccc(F)c3)nc3sccn23)n1)c1ccc(F)cc1
- viability at 10 µM (PC-3): 58.9%
- viability at 10 µM (SF-295): 92.7%
- viability at 10 µM (NCI-H322M): 100%
- viability at 10 µM (MCF7): 70.1%
- viability at 10 µM (SNB-75): 98.5%
- viability at 10 µM (NCI/ADR-RES): 60%
- viability at 10 µM (NCI-H23): 83.7%
- viability at 10 µM (HOP-92): 102%
- viability at 10 µM (UACC-257): 112%
- viability at 10 µM (NCI-H522): 54%
- viability at 10 µM (Hs-578T): 90.1%
- viability at 10 µM (SF-539): 115%
- viability at 10 µM (MDA-MB-435): 50.4%
- viability at 10 µM (LOX IMVI): 56%
- viability at 10 µM (HOP-62): 101%
- viability at 10 µM (U-251): 90.6%
- viability at 10 µM (A549): 74%
- viability at 10 µM (CAKI-1): 57.8%
- viability at 10 µM (SK-MEL-5): 47.3%
- viability at 10 µM (SF-268): 73.9%
- viability at 10 µM (MDA-MB-231): 94.2%
- viability at 10 µM (SR): 95.8%
- viability at 10 µM (OVCAR-8): 49.8%
- viability at 10 µM (HCT-15): 44.5%
- viability at 10 µM (OVCAR-5): 130%
- viability at 10 µM (SK-MEL-2): 76.6%
- viability at 10 µM (EKVX): 80.4%
- viability at 10 µM (TK-10): 99.7%
- viability at 10 µM (IGROV-1): 36.9%
- viability at 10 µM (UO-31): 38.8%
- viability at 10 µM (Malme-3M): 102%
- viability at 10 µM (BT-549): 79.9%
- viability at 10 µM (M14): 59.4%
- viability at 10 µM (RXF 393): 85%
- viability at 10 µM (DU-145): 84.5%
- viability at 10 µM (RPMI-8226): 51%
- viability at 10 µM (SW-620): 106%
- viability at 10 µM (NCI-H226): 56.2%
- viability at 10 µM (SNB-19): 95.9%
- viability at 10 µM (HCC 2998): 116%
- viability at 10 µM (HCT-116): 59.4%
